Reference: patent US10118930B2, “Piperidinylpyrazolopyrimidinones and their use” (BAYER PHARMA AKTIENGESELLSCHAFT, priority 2015, dated 2018)
Structures can show the parent of a compound that is named as a salt.

These compounds were tested on clot lysis (fibrinolysis) in diluted human citrated plasma, tPA-induced (assay: Plasma-based clot lysis assay (5%)). Conditions: human citrated platelet-poor plasma 5%, fibrinogen 3 μM, CaCl2 10 mM, tPA 0.2 nM, 37° C., OD at 405 nm.
Format: biochemical
Procedure, shortened: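 Compounds added to 5% platelet-poor citrated human plasma with 3 μM fibrinogen in 20 mM HEPES, 150 mM NaCl, 0.01% Brij, pH 7. Clotting and lysis started with 10 mM CaCl2 and 0.2 nM tPA at 37° C. IC50 derived by comparing time courses with a blank control reaction.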

O=c1cc(C2CCNCC2)n2ncc(-c3nnc(C4CCC4)o3)c2[nH]1 [Example 294, 3-(5-cyclobutyl-1,3,4-oxadiazol-2-yl)-7-(piperidin-4-yl)pyrazolo[1,5-a]pyrimidin-5 (4H)-one hydrochloride] and CCCCc1nnc(-c2cnn3c(C4CCNCC4)cc(=O)[nH]c23)o1 [Example 295, 3-(5-butyl-1,3,4-oxadiazol-2-yl)-7-(piperidin-4-yl)pyrazolo[1,5-a]pyrimidin-5(4H)-one hydrochloride] are within 1.5-fold of each other in IC50: 37 nM for the first, 35 nM for the second.

Cc1nn2c(C3CCNCC3)cc(=O)[nH]c2c1-c1nc(C(C)(C)C)no1 [Example 296, 3-(3-tert-butyl-1,2,4-oxadiazol-5-yl)-2-methyl-7-(piperidin-4-yl)pyrazolo[1,5-a]pyrimidin-5(4H)-one hydrochloride] and Cc1noc(-c2c(C)nn3c(C4CCNCC4)cc(=O)[nH]c23)n1 [Example 339, 2-methyl-3-(3-methyl-1,2,4-oxadiazol-5-yl)-7-(piperidin-4-yl)pyrazolo[1,5-a]pyrimidin-5(4H)-one hydrochloride] are within 1.5-fold of each other in IC50: 23 nM for the first, 28 nM for the second.

First: COCCc1noc(-c2c(C)nn3c(C4CCNCC4)cc(=O)[nH]c23)n1 [Example 297, 3-[3-(2-methoxyethyl)-1,2,4-oxadiazol-5-yl]-2-methyl-7-(piperidin-4-yl)pyrazolo[1,5-a]pyrimidin-5(4H)-one hydrochloride]
Second: Cc1nn2c(C3CCNCC3)cc(=O)[nH]c2c1-c1nc(CCOC(C)(C)C)no1 [Example 302, 3-[3-(2-tert-butoxyethyl)-1,2,4-oxadiazol-5-yl]-2-methyl-7-(piperidin-4-yl)pyrazolo[1,5-a]pyrimidin-5(4H)-one hydrochloride]
The IC50 of the first is 4.5-fold higher: 27 nM for the first, 6 nM for the second.

Going from Cc1nn2c(C3CCNCC3)cc(=O)[nH]c2c1-c1nc(Cc2ccc(F)cc2)no1 [Example 299, 3-[3-(4-fluorobenzyl)-1,2,4-oxadiazol-5-yl]-2-methyl-7-(piperidin-4-yl)pyrazolo[1,5-a]pyrimidin-5(4H)-one hydrochloride] to CCc1noc(-c2c(C)nn3c(C4CCNCC4)cc(=O)[nH]c23)n1 [Example 300, 3-(3-ethyl-1,2,4-oxadiazol-5-yl)-2-methyl-7-(piperidin-4-yl)pyrazolo[1,5-a]pyrimidin-5(4H)-one hydrochloride], the IC50 falls from 25 nM to 16 nM (1.6-fold).

CC(C)(C)CC1CC(c2cc(=O)[nH]c3c(-c4nc(C(C)(C)C)no4)cnn23)CCN1 (centres unmarked) [Example 303, 3-(3-tert-butyl-1,2,4-oxadiazol-5-yl)-7-[2-(2,2-dimethylpropyl)piperidin-4-yl]pyrazolo[1,5-a]pyrimidin-5(4H)-one hydrochloride] and CC(C)(C)c1cnc(-c2cnn3c(C4CCNCC4)cc(=O)[nH]c23)o1 [Example 332, 3-(5-tert-butyl-1,3-oxazol-2-yl)-7-(piperidin-4-yl)pyrazolo[1,5-a]pyrimidin-5 (4H)-one hydrochloride] are within 1.5-fold of each other in IC50: 38 nM for the first, 26 nM for the second.

Going from CC(C)CCc1csc(-c2cnn3c(C4CCNCC4)cc(=O)[nH]c23)n1 [Example 304, 3-[4-(3-methylbutyl)-1,3-thiazol-2-yl]-7-(piperidin-4-yl)pyrazolo[1,5-a]pyrimidin-5 (4H)-one hydrochloride] to CCc1csc(-c2cnn3c(C4CCNCC4)cc(=O)[nH]c23)n1 [Example 308, 3-(4-ethyl-1,3-thiazol-2-yl)-7-(piperidin-4-yl)pyrazolo[1,5-a]pyrimidin-5(4H)-one hydrochloride], the IC50 falls from 24 nM to 11 nM (2.2-fold).

Compared with COc1ccc(C2(c3nnc(-c4cnn5c(C6CCNCC6)cc(=O)[nH]c45)o3)CC2)cc1 [Example 305, 3-{5-[1-(4-methoxyphenyl)cyclopropyl]-1,3,4-oxadiazol-2-yl}-7-(piperidin-4-yl)pyrazolo[1,5-a]pyrimidin-5(4H)-one hydrochloride], Cc1ccc(-c2csc(-c3cnn4c(C5CCNCC5)cc(=O)[nH]c34)n2)cc1 [Example 309, 3-[4-(4-methylphenyl)-1,3-thiazol-2-yl]-7-(piperidin-4-yl)pyrazolo[1,5-a]pyrimidin-5(4H)-one hydrochloride] is 2-fold higher in IC50: 20 nM for the first, 41 nM for the second.

First: Cc1ccc(-c2noc(-c3c(C)nn4c(C5CCNCC5)cc(=O)[nH]c34)n2)cc1 [Example 306, 2-methyl-3-[3-(4-methylphenyl)-1,2,4-oxadiazol-5-yl]-7-(piperidin-4-yl)pyrazolo[1,5-a]pyrimidin-5(4H)-one hydrochloride]
Second: Cc1nn2c(C3CCNCC3)cc(=O)[nH]c2c1-c1nc(C(F)(F)F)no1 [Example 341, 2-methyl-7-(piperidin-4-yl)-3-[3-(trifluoromethyl)-1,2,4-oxadiazol-5-yl]pyrazolo[1,5-a]pyrimidin-5(4H)-one hydrochloride]
The IC50 of the first is 3.1-fold lower: 11 nM for the first, 34 nM for the second. The first is the more potent here.

Going from O=c1cc(C2CCNCC2)n2ncc(-c3nc(C4CC4)cs3)c2[nH]1 [Example 311, 3-(4-cyclopropyl-1,3-thiazol-2-yl)-7-(piperidin-4-yl)pyrazolo[1,5-a]pyrimidin-5(4H)-one hydrochloride] to O=c1cc(C2CCNCC2)n2ncc(-c3nc(C4CCCCC4)cs3)c2[nH]1 [Example 335, 3-(4-cyclohexyl-1,3-thiazol-2-yl)-7-(piperidin-4-yl)pyrazolo[1,5-a]pyrimidin-5(4H)-one hydrochloride], the IC50 falls from 18 nM to 9 nM (2-fold).

Cc1ccc(-c2csc(-c3cnn4c(C5CCNCC5)cc(=O)[nH]c34)n2)c(C)c1 [Example 312, 3-[4-(2,4-dimethylphenyl)-1,3-thiazol-2-yl]-7-(piperidin-4-yl)pyrazolo[1,5-a]pyrimidin-5(4H)-one hydrochloride] and O=c1cc(C2CCNCC2)n2ncc(-c3nc(-c4ccccc4OC(F)F)cs3)c2[nH]1 [Example 337, 3-{4-[2-(difluoromethoxy)phenyl]-1,3-thiazol-2-yl}-7-(piperidin-4-yl)pyrazolo[1,5-a]pyrimidin-5(4H)-one hydrochloride] are within 1.5-fold of each other in IC50: 22 nM for the first, 30 nM for the second.

First: Cc1cc(CN(C)C(=O)c2cnn3c(C4CCNCC4)cc(=O)[nH]c23)no1 [Example 316, N-methyl-N-[(5-methyl-1,2-oxazol-3-yl)methyl]-5-oxo-7-(piperidin-4-yl)-4,5-dihydropyrazolo[1,5-a]pyrimidine-3-carboxamide hydrochloride]
Second: CN(Cc1cccnc1)C(=O)c1cnn2c(C3CCNCC3)cc(=O)[nH]c12 [Example 318, N-methyl-5-oxo-7-(piperidin-4-yl)-N-(pyridin-3-ylmethyl)-4,5-dihydropyrazolo[1,5-a]pyrimidine-3-carboxamide hydrochloride]
The IC50 of the first is 1.7-fold lower: 27 nM for the first, 45 nM for the second.

Compared with CCNC(=O)c1c(C)nn2c(C3CCNCC3)cc(=O)[nH]c12 [Example 317, N-ethyl-2-methyl-5-oxo-7-(piperidin-4-yl)-4,5-dihydropyrazolo[1,5-a]pyrimidine-3-carboxamide hydrochloride], Cc1nn2c(C3CCNCC3)cc(=O)[nH]c2c1C(=O)O [Example 323, 2-methyl-5-oxo-7-(piperidin-4-yl)-4,5-dihydropyrazolo[1,5-a]pyrimidine-3-carboxylic acid hydrochloride] is 16-fold higher in IC50: 29 nM for the first, 460 nM for the second. The first is the more potent here.

Going from Cc1nn2c(C3CCNCC3)cc(=O)[nH]c2c1C(=O)N(C)C [Example 319, N,N,2-trimethyl-5-oxo-7-(piperidin-4-yl)-4,5-dihydropyrazolo[1,5-a]pyrimidine-3-carboxamide hydrochloride] to CN(C)Cc1cnn2c(C3CCNCC3)cc(=O)[nH]c12 [Example 342, 3-[(dimethylamino)methyl]-7-(piperidin-4-yl)pyrazolo[1,5-a]pyrimidin-5(4H)-one hydrochloride], the IC50 rises from 75 nM to 170 nM (2.3-fold). The first is the more potent here.

First: C[C@@H]1CCN(C(=O)c2cnn3c(C4CCNCC4)cc(=O)[nH]c23)C1 [Example 321, 3-{[(3R)-3-methylpyrrolidin-1-yl]carbonyl}-7-(piperidin-4-yl)pyrazolo[1,5-a]pyrimidin-5(4H)-one hydrochloride]
Second: O=C(c1cnn2c(C3CCNCC3)cc(=O)[nH]c12)N1CCCC1 [Example 322, 7-(piperidin-4-yl)-3-(pyrrolidin-1-ylcarbonyl)pyrazolo[1,5-a]pyrimidin-5(4H)-one hydrochloride]
The IC50 of the first is 2.3-fold higher: 82 nM for the first, 36 nM for the second.

CC1(C)CCN(Cc2cnn3c(C4CCNCC4)cc(=O)[nH]c23)C1 [Example 324, 3-[(3,3-dimethylpyrrolidin-1-yl)methyl]-7-(piperidin-4-yl)pyrazolo[1,5-a]pyrimidin-5(4H)-one hydrochloride] and CC1(C)CN(Cc2cnn3c(C4CCNCC4)cc(=O)[nH]c23)CCO1 [Example 330, 3-[(2,2-dimethylmorpholin-4-yl)methyl]-7-(piperidin-4-yl)pyrazolo[1,5-a]pyrimidin-5(4H)-one hydrochloride] are within 1.5-fold of each other in IC50: 150 nM for the first, 110 nM for the second.

O=C(c1cnn2c(C3CCNCC3)cc(=O)[nH]c12)N1CC(F)(F)C1 [Example 326, 3-[(3,3-difluoroazetidin-1-yl)carbonyl]-7-(piperidin-4-yl)pyrazolo[1,5-a]pyrimidin-5 (4H)-one hydrochloride] and O=C(c1cnn2c(C3CCNCC3)cc(=O)[nH]c12)N1CCCCC1 [Example 327, 7-(piperidin-4-yl)-3-(piperidin-1-ylcarbonyl)pyrazolo[1,5-a]pyrimidin-5(4H)-one hydrochloride] are within 1.5-fold of each other in IC50: 12 nM for the first, 9 nM for the second.

Going from Cc1nn2c(C3CCNCC3)cc(=O)[nH]c2c1-c1nnc(C(C)(C)C)o1 [Example 338, 3-(5-tert-butyl-1,3,4-oxadiazol-2-yl)-2-methyl-7-(piperidin-4-yl)pyrazolo[1,5-a]pyrimidin-5(4H)-one hydrochloride] to O=c1cc(C2CCNCC2)n2ncc(C3CC3)c2[nH]1 [Example 344, 3-cyclopropyl-7-(piperidin-4-yl)pyrazolo[1,5-a]pyrimidin-5(4H)-one hydrochloride], the IC50 rises from 11 nM to 120 nM (11-fold). The first is the more potent here.

Work on O=c1cc(C2CCNCC2)n2ncc(CN3CCCC3)c2[nH]1 [Example 343, 7-(piperidin-4-yl)-3-(pyrrolidin-1-ylmethyl)pyrazolo[1,5-a]pyrimidin-5(4H)-one hydrochloride] yielded an IC50 of 130 nM.
